Experimental data as given in US4703050A, “Methods of inducing neuron protective activity” (Roussel Uclaf, priority 1985, dated 1987).

Assays:
Assay type in all cases: in vivo
[1] = Acute Toxicity Study (LD0); details: mice, oral administration
Source text: The result obtained was LD0 in mg/kg =200.

[2] = Hypobaric Anoxemia Test; details: male mice, 15 min before 190 mm Hg, vs control animals
Protocol: Male mice weighing 20-22 g were used having eaten nothing for 5 hours and they were divided into groups of 10 animals. The product to be tested was administered to the animals subcutaneously. […] The increase in the survival time, expressed as a percentage was calculated for the treated animals in comparison with control animals submitted to the same conditions.

[3] = Asphysic Anoxemia Test (electroencephalogram survival); details: mice, curare, 2 mg/kg, respiratory assistance stopped; for increase in the time necessary for the electroencephalogram to disappear: vs control animals
Protocol: Curare was administered to mice which were placed under assisted respiration and the products to be tested were administered at a dose of 2 mg/kg, and the respiratory assistance was stopped.

[4] = test system: enolase γγ; test: Enolase Test (kainic acid-induced neuron lesion); details: mice, 1 mg/kg intraperitoneally
Protocol: Injured cerebral cells release enolase γγ which is a specific indicator of neuron lesion. In this test, the lesions were induced in the mice by sub-cutaneous injection of 35 mg/kg of kainic acid.

Structure (SMILES)	LD0 (maximum dose which did not cause mortality in 8 days) [1]	% Increase in the survival time ([2]; 1 mg/kg subcutaneously)	% Increase in the survival time ([2]; 10 mg/kg subcutaneously)	electro-encephalographic survival [3]	increase in the time necessary for the electroencephalogram to disappear [3]	decrease in the serous concentration of enolase ([4]; 1 hour before 35 mg/kg s.c. kainic acid)	protection of cerebral cells in the affected area ([4]; 1 hour before kainic acid)
CSC[C@@H]1C[C@@H]2c3cccc4[nH]cc(c34)C[C@H]2N(C)C1 [Product A, 6-methyl-8β-(methylthiomethyl)-ergoline]	200 mg/kg	12%	57%	prolong the electro-encephalographic survival	10%	29%	protected the cerebral cells in the affected area
CSC[C@@H]1C=C2c3cccc4[nH]cc(c34)C[C@H]2N(C)C1 [Product B, 6-methyl-8β-methylthiomethyl-9,10-didehydroergoline]				prolong the electro-encephalographic survival	11%		
